{
  "source": "patent US10870629B2",
  "about": "“18F-labelled compound for prostate cancer diagnosis, and use thereof” (FUTURECHEM CO., LTD., priority 2017, dated 2020)",
  "key": {"PSMA protein": {"biological_target": "T1, PSMA protein (Homo sapiens, UniProt Q04609)", "T1 construct": "host or cells: 22RV1 human prostate cancer cells", "T1 sequence (Q04609 whole entry)": "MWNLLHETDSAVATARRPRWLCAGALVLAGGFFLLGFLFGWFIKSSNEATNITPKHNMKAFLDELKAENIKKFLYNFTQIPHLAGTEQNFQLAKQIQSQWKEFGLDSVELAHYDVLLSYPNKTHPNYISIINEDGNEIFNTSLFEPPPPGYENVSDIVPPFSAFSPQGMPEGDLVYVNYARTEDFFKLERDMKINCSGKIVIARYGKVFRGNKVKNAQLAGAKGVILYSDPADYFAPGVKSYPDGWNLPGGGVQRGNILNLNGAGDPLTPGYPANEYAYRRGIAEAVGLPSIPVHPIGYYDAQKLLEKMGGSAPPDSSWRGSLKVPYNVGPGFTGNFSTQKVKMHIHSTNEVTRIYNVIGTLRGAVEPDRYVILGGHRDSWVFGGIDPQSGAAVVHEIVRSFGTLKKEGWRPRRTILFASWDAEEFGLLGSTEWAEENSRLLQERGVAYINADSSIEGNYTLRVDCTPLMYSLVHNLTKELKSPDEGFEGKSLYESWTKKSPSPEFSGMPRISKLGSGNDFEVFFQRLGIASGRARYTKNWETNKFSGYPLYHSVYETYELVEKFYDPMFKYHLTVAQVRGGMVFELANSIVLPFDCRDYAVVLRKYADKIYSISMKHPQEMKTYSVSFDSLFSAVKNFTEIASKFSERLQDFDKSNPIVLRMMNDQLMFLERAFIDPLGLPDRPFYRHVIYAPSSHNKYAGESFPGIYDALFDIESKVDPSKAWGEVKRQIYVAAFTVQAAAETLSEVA", "test": "Measurement of binding capacity: competition with [125I]15 on 22RV1 cells", "conditions": "for IC50: [125I]15 0.1 nM, 37° C., 2 hours, read-out: IC50 (Mean ± SD)", "procedure": "RPMI1640 supplemented with 1% BSA (bovine serum albumin) was used as a buffer solution.\n[^125I]15 (0.1 nM) was added to a vessel containing 22RV1 cells (5×10^4), to which [^18F]1-1 to [^18F]1-9 compounds were loaded at 9 concentrations ([…]), followed by stirring at 37° C. for 2 hours. Upon completion of the stirring, the vessel was washed with 2 mL of PBS solution three times, and then the remaining radioactivity and 50% inhibition concentration (nonlinear regression method) were measured using a gamma counter (2480 WIZARD2 Gamma Counter PerkinElmer Co., MA) and GraphPad Prism (GraphPad Software, Inc., CA)."}, "PSMA+ PC-3 PIP tumors": {"test_system": "PSMA+ PC-3 PIP tumors", "test": "MicroPET/CT in mice transplanted with prostate cancer cell lines", "assay_type": "in vivo, nude mouse", "conditions": "for tumor binding (MicroPET/CT, FIG. 3): nude mouse with PC-3 PIP and PC-3 flu tumors; for excretion (MicroPET/CT, FIG. 3): nude mouse, intravenous, 60 minutes imaging"}, "PC-3 PIP": {"test_system": "PC-3 PIP", "test": "Measurement of cellular internalization", "assay_type": "cell-based, human", "description": "Then, the membrane protein and the cytoplasmic protein were separated by using Mem-PER Plus Membrane Protein Extraction Kit and NE-PER Nuclear and Cytoplasmic Extraction Kit (ThermoFisher Scientific). The internalization rate (%) was confirmed by obtaining the radioactivity ratio in the cytoplasmic protein to the total radioactivity."}, "PSMA+ PC-3 PIP tumor": {"test_system": "PSMA+ PC-3 PIP tumor", "test": "Biodistribution test with prostate cancer model mouse"}, "[1]": {"conditions": "0.5 h after tail vein injection"}},
  "data": [
    {"smiles": "O=C(O)CC[C@H](NC(=O)N[C@@H](CCCCNC(=O)Nc1ccc(I)cc1)C(=O)O)C(=O)O", "note": "[Comparative Example 1, reference compound]", "values": [
      {"measurement": "IC50", "setting": "PSMA protein", "value": "30.7 ± 10.2", "unit": "nM"}
    ]},
    {"smiles": "O=C(O)CC[C@H](NC(=O)N[C@@H](CCCCNC(=O)Nc1ccc([123I])cc1)C(=O)O)C(=O)O", "note": "[Comparative Example 1, reference compound]", "values": [
      {"measurement": "tumor binding (MicroPET/CT, FIG. 3)", "setting": "PSMA+ PC-3 PIP tumors", "value": "selectively bound to PSMA+PC-3 PIP tumors"},
      {"measurement": "excretion (MicroPET/CT, FIG. 3)", "setting": "PSMA+ PC-3 PIP tumors", "value": "rapidly excreted through the kidneys and bladder"},
      {"measurement": "% Internalization ratio (Mean ± SD)", "setting": "PC-3 PIP; 30 min", "value": "91.27 ± 4.03", "unit": "%"},
      {"measurement": "% Internalization ratio (Mean ± SD)", "setting": "PC-3 PIP; 60 min", "value": "86.91 ± 8.13", "unit": "%"},
      {"measurement": "% Internalization ratio (Mean ± SD)", "setting": "PC-3 PIP; 120 min", "value": "94.31 ± 2.94", "unit": "%"},
      {"measurement": "% Internalization ratio (Mean ± SD)", "setting": "PC-3 PIP; 240 min", "value": "95.01 ± 2.58", "unit": "%"}
    ]},
    {"smiles": "O=C(O)CC[C@H](NC(=O)N[C@@H](CCCCNC(=O)NCc1cn(CCF)nn1)C(=O)O)C(=O)O", "note": "[Example 7-1]", "values": [
      {"measurement": "IC50", "setting": "PSMA protein", "value": "635 ± 263", "unit": "nM"}
    ]},
    {"smiles": "O=C(O)CC[C@H](NC(=O)N[C@@H](CCCCNC(=O)NCc1cn(CCOCC[18F])nn1)C(=O)O)C(=O)O", "note": "[Example 7-4]", "values": [
      {"measurement": "IC50", "setting": "PSMA protein", "value": "57 ± 33", "unit": "nM"}
    ]},
    {"smiles": "O=C(O)CC[C@H](NC(=O)N[C@@H](CCCCNC(=O)N(Cc1ccncc1)Cc1cn(CCOCC[18F])nn1)C(=O)O)C(=O)O", "note": "[Example 7-5]", "values": [
      {"measurement": "IC50", "setting": "PSMA protein", "value": 11.8, "unit": "nM"}
    ]},
    {"smiles": "O=C(O)CC[C@H](NC(=O)N[C@@H](CCCCNC(=O)N(Cc1cn(CCOCC[18F])nn1)c1ccncc1)C(=O)O)C(=O)O", "note": "[Example 7-6]", "values": [
      {"measurement": "tumor binding (MicroPET/CT, FIG. 3)", "setting": "PSMA+ PC-3 PIP tumors", "value": "selectively bound to PSMA+PC-3 PIP tumors"},
      {"measurement": "excretion (MicroPET/CT, FIG. 3)", "setting": "PSMA+ PC-3 PIP tumors", "value": "rapidly excreted through the kidneys and bladder"},
      {"measurement": "PIP to blood", "setting": "PSMA+ PC-3 PIP tumor; [1]", "value": "14.05 ± 3.61"},
      {"measurement": "PIP to liver", "setting": "PSMA+ PC-3 PIP tumor; [1]", "value": "5.64 ± 6.10"},
      {"measurement": "PIP to muscle", "setting": "PSMA+ PC-3 PIP tumor; [1]", "value": "13.00 ± 4.97"},
      {"measurement": "PIP to spleen", "setting": "PSMA+ PC-3 PIP tumor; [1]", "value": "7.31 ± 3.34"},
      {"measurement": "PIP/flu", "setting": "PSMA+ PC-3 PIP tumor; [1]", "value": "16.00 ± 5.68"},
      {"measurement": "PIP to blood", "setting": "PSMA+ PC-3 PIP tumor; 1 h after tail vein injection", "value": "30.30 ± 17.05"},
      {"measurement": "PIP to liver", "setting": "PSMA+ PC-3 PIP tumor; 1 h after tail vein injection", "value": "9.93 ± 13.26"},
      {"measurement": "PIP to muscle", "setting": "PSMA+ PC-3 PIP tumor; 1 h after tail vein injection", "value": "20.11 ± 14.99"},
      {"measurement": "PIP to spleen", "setting": "PSMA+ PC-3 PIP tumor; 1 h after tail vein injection", "value": "12.46 ± 16.18"},
      {"measurement": "PIP/flu", "setting": "PSMA+ PC-3 PIP tumor; 1 h after tail vein injection", "value": "23.08 ± 14.91"},
      {"measurement": "PIP to blood", "setting": "PSMA+ PC-3 PIP tumor; 2 h after tail vein injection", "value": "36.90 ± 9.52"},
      {"measurement": "PIP to liver", "setting": "PSMA+ PC-3 PIP tumor; 2 h after tail vein injection", "value": "13.71 ± 12.60"},
      {"measurement": "PIP to muscle", "setting": "PSMA+ PC-3 PIP tumor; 2 h after tail vein injection", "value": "38.11 ± 14.83"},
      {"measurement": "PIP to spleen", "setting": "PSMA+ PC-3 PIP tumor; 2 h after tail vein injection", "value": "25.98 ± 8.66"},
      {"measurement": "PIP/flu", "setting": "PSMA+ PC-3 PIP tumor; 2 h after tail vein injection", "value": "33.32 ± 14.64"},
      {"measurement": "PIP to blood", "setting": "PSMA+ PC-3 PIP tumor; 4 h after tail vein injection", "value": "42.90 ± 18.49"},
      {"measurement": "PIP to liver", "setting": "PSMA+ PC-3 PIP tumor; 4 h after tail vein injection", "value": "19.77 ± 11.81"},
      {"measurement": "PIP to muscle", "setting": "PSMA+ PC-3 PIP tumor; 4 h after tail vein injection", "value": "45.39 ± 22.54"},
      {"measurement": "PIP to spleen", "setting": "PSMA+ PC-3 PIP tumor; 4 h after tail vein injection", "value": "32.51 ± 10.12"},
      {"measurement": "PIP/flu", "setting": "PSMA+ PC-3 PIP tumor; 4 h after tail vein injection", "value": "35.69 ± 11.64"},
      {"measurement": "binding capacity higher than [18F]DCFPyL (Comparative Example 1)", "setting": "PSMA protein", "value": "about 6 times"},
      {"measurement": "binding to the PSMA protein (in words)", "setting": "PSMA protein", "value": "most strongly bound"},
      {"measurement": "IC50", "setting": "PSMA protein", "value": 5.08, "unit": "nM"},
      {"measurement": "% Internalization ratio (Mean ± SD)", "setting": "PC-3 PIP; 30 min", "value": "93.30 ± 2.11", "unit": "%"},
      {"measurement": "% Internalization ratio (Mean ± SD)", "setting": "PC-3 PIP; 60 min", "value": "91.89 ± 5.76", "unit": "%"},
      {"measurement": "% Internalization ratio (Mean ± SD)", "setting": "PC-3 PIP; 120 min", "value": "94.77 ± 2.92", "unit": "%"},
      {"measurement": "% Internalization ratio (Mean ± SD)", "setting": "PC-3 PIP; 240 min", "value": "96.32 ± 1.08", "unit": "%"}
    ]}
  ]
}
